The values that follow come from patent publication US20230413824A1, “AGROCHEMICAL COMPOSITION COMPRISING 3-SUBSTITUTED PHENYLAMIDINE COMPOUNDS AND USE THEREOF” (PI INDUSTRIES LIMITED, priority 2020, published 2023).

Holding throughout (format): in vivo
In assay [1] the test system is Pyricularia oryzae. Put plainly: whole plant or invertebrate. The following applies: for Observed Efficacy: single compound, preventive spray, rice.
Assay [2] relates to Alternaria solani. The experiment in a line: Alternaria solani test in tomato (preventive, glasshouse). The following applies: for pest or weed control at 0.05 ppm / pest or weed control at 0.1 ppm / pest or weed control at 1 ppm / pest or weed control at 5 ppm / pest or weed control at 20 ppm: Alternaria solani.
Assay [3] concerns Erysiphe cichoracearum. The experiment in a line: Erysiphe cichoracearum test in cucumber (preventive, glasshouse). Particulars: single compound.
For assay [4], the system named is Phakopsora pachyrhizi. Put plainly: Phakopsora pachyrhizi test in soybean (preventive, glasshouse). The following applies: single compound; for pest or weed control at 0.05 ppm / pest or weed control at 0.1 ppm / pest or weed control at 0.0001 ppm / pest or weed control at 0.001 ppm / pest or weed control at 0.01 ppm: Phakopsora pachyrhizi, read-out: Observed Efficacy (%).

Assay [5] has as its system Septoria nodorum. Put plainly: Parastagonospora nodorum/Septoria nodorum/Stagnospora nodorum test in wheat (preventive, glasshouse). The following applies: single compound; for pest or weed control at 0.05 ppm / pest or weed control at 0.1 ppm / pest or weed control at 1 ppm / pest or weed control at 5 ppm / pest or weed control at 20 ppm: Parastagonospora nodorum, read-out: Observed Efficacy (%). As to the method: The single compounds or compound combinations were dissolved in 2% DMSO/Acetone and then mixed with water containing emulsifier to a calibrated spray volume of 50 mL. The spray solutions were poured into spray bottles for further applications.
To test the preventive activity of compounds, healthy young wheat plants, raised in the greenhouse, were sprayed with the single compound or mixture preparation at the stated application rates inside the spray cabinets using hollow cone nozzles. One day after treatment, the plants were inoculated with a suspension containing 2.8×10^6 Stagnospora nodorum inoculum. The inoculated plants were then kept in a greenhouse chamber at 22-25° C. temperature and 90-100% relative humidity for disease expression.
A visual assessment of the performance of the compounds and respective compound combinations was carried out by rating the disease severity (0-100% scale) on treated plants 3, 7 and 10 days after application. Efficacy (% control) of the compounds was calculated by comparing the disease rating in the treatment with the one of the untreated control. The compounds were also assessed for their plant compatibility by recording symptoms like necrosis, chlorosis & stunting. The results are shown for the compound of formula (I-1) to (I-5) in Table E1-E5.

The test system of assay [6] is Botrytis cinerea. Put plainly: Botrytis cinerea test in tomato (preventive, glasshouse). Particulars: single compound; for pest or weed control at 0.05 ppm / pest or weed control at 0.1 ppm / pest or weed control at 1 ppm / pest or weed control at 5 ppm / pest or weed control at 20 ppm: Botrytis cinerea, read-out: Observed Efficacy (%); for pest or weed control at 1 ppm: Conc. 1 ppm; for pest or weed control at 5 ppm: Conc. 5 ppm; for pest or weed control at 20 ppm: Conc. 20 ppm.

Setting [7] is: Pyricularia oryzae, read-out: Observed Efficacy.
Setting [8] is: single compound, 0.05 ppm, preventive spray, read-out: Observed Efficacy (%).
Where [9] appears, read: single compound, 0.1 ppm, preventive spray, read-out: Observed Efficacy (%).
Setting [10] is: Table B4, single compound, Conc. 0.1 ppm, preventive.
Where [11] appears, read: single compound, 0.05 ppm, preventive.
The mark [12] stands for this setting: single compound, 0.1 ppm, preventive.
The mark [13] stands for this setting: Conc. 0.05 ppm, soybean, preventive, Table D4.
Where [14] appears, read: Conc. 0.05 ppm, soybean, preventive, Table D5.
Where [15] appears, read: Conc. 0.1 ppm, soybean, preventive, Table D4.
The mark [16] stands for this setting: Conc. 0.1 ppm, soybean, preventive, Table D5.
[17] abbreviates: Conc. 0.05 ppm, preventive spray on tomato, % control vs untreated.
The mark [18] stands for this setting: Conc. 0.1 ppm, preventive spray on tomato, % control vs untreated.
[19] abbreviates: preventive spray on tomato, % control vs untreated.
Where [20] appears, read: Table F4, Conc. 0.05 ppm, Botrytis cinerea in tomato, preventive.
Where [21] appears, read: Table F4, Conc. 0.1 ppm, Botrytis cinerea in tomato, preventive.
Setting [22] is: Table B3, single compound, Conc. 0.1 ppm, preventive.

Read-outs that look alike come from different tables or passages of the source.

Regarding `N#Cc1sc2c(=O)c3ccccc3c(=O)c=2sc1C#N` [Dithianon, dithianon], the pest or weed control at 0.05 ppm was determined as 34% in assay [1] (setting [7]); 21% in assay [2] (setting [8]); 11% in assay [3] (Golovinomyces cichoracearum, 0.05 ppm, cucumber, preventive, read-out: Observed Efficacy (%)); 15% in assay [4] (0.05 ppm, preventive spray on soybean); 11% in assay [5] (0.05 ppm); 38% in assay [6] (setting [17]). For the same compound, the pest or weed control at 0.1 ppm in assay [1] (setting [7]) stood at 42%; in assay [2] (setting [9]), 26%; in assay [3] (Golovinomyces cichoracearum, 0.1 ppm, cucumber, preventive, read-out: Observed Efficacy (%)), 18%; in assay [4] (preventive spray on soybean), 24%; in assay [5] (0.1 ppm), 16%; in assay [6] (setting [18]), 45%. Also, the “Observed Efficacy (%)” value came to 21% in assay [2] (Table B4, single compound, Conc. 0.05 ppm, preventive); 26% in assay [2] (setting [10]); 21% in assay [2] (setting [11]); 26% in assay [2] (setting [12]); 11% in assay [3] (0.05 ppm, preventive spray on cucumber); 18% in assay [3] (0.1 ppm, preventive spray on cucumber). For the same compound, the “Observed Efficacy (%)” value in assay [4] (setting [13]) was found to be 15%; in assay [4] (setting [14]) it was 15%; in assay [4] (setting [15]) it was 24%; in assay [4] (setting [16]) it was 24%.
As to `CCN(C)C=Nc1cc(C)cc(Cc2ccc(C)cc2)c1C` [Compound (I-2), N′-(2,5-dimethyl-3-(4-methylbenzyl)phenyl)-N-ethyl-N-methylformimidamide], the pest or weed control at 1 ppm in assay [1] (setting [7]) turned out to be 13%; in assay [2] (single compound, 1 ppm, preventive spray, read-out: Observed Efficacy (%)), 13%; in assay [5], 13%; in assay [6] (setting [19]) it was 23%. The pest or weed control at 5 ppm in assay [1] (setting [7]) was determined as 23%; in assay [2] (single compound, 5 ppm, preventive spray, read-out: Observed Efficacy (%)) it was 23%; in assay [5], 23%; in assay [6] (setting [19]), 33%. Also, the pest or weed control at 20 ppm was found to be 37% in assay [1] (setting [7]); 33% in assay [2] (single compound, 20 ppm, preventive spray, read-out: Observed Efficacy (%)); 33% in assay [5]; 53% in assay [6] (setting [19]). Further, the pest or weed control at 0.0001 ppm in assay [4] (preventive spray on soybean) came out at 47%. In addition, the pest or weed control at 0.001 ppm in assay [4] (preventive spray on soybean) was determined as 57%. Further, the pest or weed control at 0.01 ppm in assay [4] (preventive spray on soybean) came to 68%.
As to `CC1COC(Cn2cncn2)(c2ccc(Oc3ccc(Cl)cc3)cc2Cl)O1` (stereo not shown) [Difenconazole, difenoconazole], the pest or weed control at 0.05 ppm in assay [1] (setting [7]) is 24%; in assay [2] (setting [8]), 42%; in assay [2] (single compound, Conc. 0.05 ppm, preventive spray, read-out: Observed Efficacy), 42%; in assay [4] (setting [13]), 17%; in assay [6] (setting [17]) it was 42%. For the same compound, the pest or weed control at 0.1 ppm in assay [1] (setting [7]) was 26%; in assay [2] (setting [9]), 47%; in assay [2] (single compound, Conc. 0.1 ppm, preventive spray, read-out: Observed Efficacy) it was 47%; in assay [4] (preventive spray on soybean) it was 24%; in assay [5] (0.1 ppm), 32%; in assay [6] (setting [18]), 52%. Besides, the “Observed Efficacy (%)” value in assay [2] (setting [10]) was found to be 47%; in assay [2] (setting [11]), 42%; in assay [2] (setting [12]), 47%; in assay [4] (setting [15]), 24%; in assay [4] (setting [16]) it was 24%; in assay [6] (setting [20]) it was 42%. In addition, the “Observed Efficacy (%)” value in assay [6] (setting [21]) stood at 52%.
For the compound `Cn1cc(C(=O)Nc2ccccc2-c2cc(F)c(F)c(F)c2)c(C(F)F)n1` [Fluxapyroxad, fluxapyroxad], the “Observed Efficacy” value in assay [1] (Conc. 0.05 ppm) is recorded as 24%; in assay [1] (Conc. 0.1 ppm), 32%; in assay [2] (single compound, Conc. 0.05 ppm, preventive spray), 40%. Besides, the “Observed Efficacy (%)” value in assay [2] (Table B3, single compound, Conc. 0.05 ppm, preventive) worked out at 40%; in assay [2] (setting [22]) it was 56%; in assay [2] (single compound, 0.05 ppm, preventive spray), 40%; in assay [2] (single compound, 0.1 ppm, preventive spray), 56%; in assay [4] (setting [14]), 46%; in assay [4] (setting [16]), 59%. For the same compound, the “Observed Efficacy (%)” value in assay [5] (0.05 ppm) was found to be 3%; in assay [5] (0.1 ppm) it was 5%; in assay [6] (setting [18]), 38%.
On to `CON=C(C(=O)OC)c1ccccc1CON=C(C)c1cccc(C(F)(F)F)c1` [Trifloxystrobin, trifloxystrobin], for which the pest or weed control at 0.05 ppm came to 24% in assay [1] (setting [7]); 33% in assay [2] (setting [8]); 22% in assay [4] (setting [13]); 5% in assay [5] (0.05 ppm); 26% in assay [6] (setting [17]). In addition, the pest or weed control at 0.1 ppm in assay [1] (setting [7]) was found to be 32%; in assay [2] (setting [9]), 40%; in assay [4] (preventive spray on soybean), 32%; in assay [5] (0.1 ppm), 18%; in assay [6] (setting [18]), 33%. Besides, the “Observed Efficacy (%)” value in assay [2] (setting [22]) stood at 40%; in assay [4] (setting [15]) it was 32%; in assay [4] (setting [16]), 32%; in assay [6] (setting [20]), 26%; in assay [6] (setting [21]), 33%.
Turning to `CCN(C)C=Nc1cc(C)cc(Cc2ccccc2C)c1C` [Compound (I-3), N′-(2,5-dimethyl-3-(2-methylbenzyl)phenyl)-N-ethyl-N-methylformimidamide], the pest or weed control at 1 ppm in assay [2] (Table B3, single compound, Conc. 1 ppm, preventive, read-out: Observed Efficacy (%)) worked out at 17%; in assay [3] (Golovinomyces cichoracearum, 1 ppm, preventive spray on cucumber, read-out: Observed Efficacy (%)) it was 17%; in assay [5] it was 13%; in assay [6] (setting [19]), 57%. For the same compound, the pest or weed control at 5 ppm in assay [2] (Table B3, single compound, Conc. 5 ppm, preventive, read-out: Observed Efficacy (%)) worked out at 23%; in assay [3] (Golovinomyces cichoracearum, 5 ppm, preventive spray on cucumber, read-out: Observed Efficacy (%)), 27%; in assay [5], 27%; in assay [6] (setting [19]) it was 67%. The pest or weed control at 20 ppm in assay [2] (Table B3, single compound, Conc. 20 ppm, preventive, read-out: Observed Efficacy (%)) amounted to 43%; in assay [3] (Golovinomyces cichoracearum, 20 ppm, preventive spray on cucumber, read-out: Observed Efficacy (%)), 47%; in assay [5], 40%; in assay [6] (setting [19]) it was 77%. For the same compound, the pest or weed control at 0.0001 ppm in assay [4] (preventive spray on soybean) came to 47%. Moreover, the pest or weed control at 0.001 ppm in assay [4] (preventive spray on soybean) was 53%. Moreover, in assay [4] (preventive spray on soybean), the pest or weed control at 0.01 ppm turned out to be 65%.
